From patent US12103926B2, “Compounds for treating huntington's disease” (PTC THERAPEUTICS, INC., priority 2018, dated 2024)

The molecules below were run on Endogenous Huntingtin Protein (assay: Endogenous Huntingtin Protein Assay (ELISA-based MSD electrochemiluminescence assay)). Conditions: MW1 (expanded polyglutamine) or MAB2166 capture antibody; lysates.
Type: cell-based
Experimental: Compounds of Formula (I) were tested using the Meso Scale Discovery (MSD) Assay provided in International Application No. PCT/US2016/066042, filed on Dec. 11, 2016 and claiming priority to United States Provisional Application U.S. 62/265,652 filed on Dec. 10, 2015, the entire contents of which are incorporated herein by reference.
The Endogenous Huntingtin Protein assay used in Example 1 was developed using the ELISA-based MSD electrochemiluminescence assay platform.
Endogenous Huntingtin Protein Assay
Meso Scale Discovery (MSD) 96-well or 384-well plates were coated overnight at 4° C. with MW1 (expanded polyglutamine) or MAB2166 monoclonal antibody (for capture) at a concentration of 1 μg/mL in PBS (30 μL per well). Plates were then washed three times with 300 μL wash buffer (0.05% Tween-20 in PBS) and blocked (100 μL blocking buffer; 5% BSA in PBS) for 4-5 hours at room temperature with rotational shaking and then washed three times with wash buffer.
Samples (25 μL) were transferred to the antibody-coated MSD plate and incubated overnight at 4° C. After removal of the lysates, the plate was washed three times with wash buffer, and 25 μL of #5656S (Cell signaling; rabbit monoclonal) secondary antibody (diluted to 0.25 μg/mL in 0.05% Tween-20 in blocking buffer) was added to each well and incubated with shaking for 1 Hour at room temperature. Following incubation with the secondary antibody, the wells were rinsed with wash buffer after which 25 μL of goat anti-rabbit SULFO TAG secondary detection antibody (required aspect of the MSD system) (diluted to 0.25 μg/mL in 0.05% Tween-20 in blocking buffer) was added to each well and incubated with shaking for 1 hour at room temperature. After rinsing three times with wash buffer, 150 μL of read buffer T with surfactant (MSD) were added to each empty well, and the plate was imaged on a SI 6000 imager (MSD) according to manufacturers' instructions provided for 96- or 384-well plates.

`Cn1cc(-c2ccc(-c3cnc(N4CCC(NC(C)(C)C)C4)cn3)c(O)c2)cn1` (stereo not drawn) [Cpd 62, 2-{5-[3-(tert-butylamino)pyrrolidin-1-yl]pyrazin-2-yl}-5-(1-methyl-1H-pyrazol-4-yl)phenol] and `CC(C)(C)NC1CCN(c2cnc(-c3ccc(-c4c[nH]nc4F)cc3O)cn2)C1` (stereo not drawn) [Cpd 65, 2-{5-[3-(tert-butylamino)pyrrolidin-1-yl]pyrazin-2-yl}-5-(3-fluoro-1H-pyrazol-4-yl)phenol] cannot be ordered by IC50: less than 100 nM for the first, less than 100 nM for the second.

Compared with `CN(c1cnc(-c2cc(Cl)c(-c3cn[nH]c3)cc2F)cn1)C1CC(C)(C)NC(C)(C)C1` [Cpd 23, 5-[5-chloro-2-fluoro-4-(1H-pyrazol-4-yl)phenyl]-N-methyl-N-(2,2,6,6-tetramethylpiperidin-4-yl)pyrazin-2-amine], `CN(c1cnc(-c2cc(Cl)c(-c3cn[nH]c3)cc2Cl)cn1)C1CC(C)(C)NC(C)(C)C1` [Cpd 4, 5-[2,5-dichloro-4-(1H-pyrazol-4-yl)phenyl]-N-methyl-N-(2,2,6,6-tetramethylpiperidin-4-yl)pyrazin-2-amine] is higher in IC50: 100 to 500 nM for the first, 1000 to 3000 nM for the second.

Compared with `Cc1[nH]ncc1-c1ccc(-c2cnc(N(C)C3CC(C)(C)NC(C)(C)C3)cn2)c(O)c1` [Cpd 12, 5-(5-methyl-1H-pyrazol-4-yl)-2-{5-[methyl(2,2,6,6-tetramethylpiperidin-4-yl)amino]pyrazin-2-yl}phenol], `CN(c1cnc(-c2ccc(-c3cn[nH]c3C(F)(F)F)cc2O)cn1)C1CC(C)(C)NC(C)(C)C1` [Cpd 9, 2-{5-[methyl(2,2,6,6-tetramethylpiperidin-4-yl)amino]pyrazin-2-yl}-5-[5-(trifluoromethyl)-1H-pyrazol-4-yl]phenol] is higher in IC50: 500 to 1000 nM for the first, 1000 to 3000 nM for the second. The first is the more potent here.

First: CN(c1cnc(-c2ccc(-c3ccn(C)c(=O)c3)cc2O)cn1)C1CC(C)(C)NC(C)(C)C1 [Cpd 18, 4-(3-hydroxy-4-{5-[methyl(2,2,6,6-tetramethylpiperidin-4-yl)amino]pyrazin-2-yl}phenyl)-1-methylpyridin-2(1H)-one]
Second: CN(c1cnc(-c2ccc(-c3ccnc(O)c3)cc2O)cn1)C1CC(C)(C)NC(C)(C)C1 [Cpd 1, 4-(3-hydroxy-4-{5-[methyl(2,2,6,6-tetramethylpiperidin-4-yl)amino]pyrazin-2-yl}phenyl)pyridin-2-ol]
The IC50 of the first is higher: 1000 to 3000 nM for the first, less than 100 nM for the second. The second is the more potent here.

Compared with `Cc1ncn(-c2cc(F)c(-c3cnc(N(C)C4CC(C)(C)NC(C)(C)C4)cn3)cc2F)n1` [Cpd 42, 5-[2,5-difluoro-4-(3-methyl-1H-1,2,4-triazol-1-yl)phenyl]-N-methyl-N-(2,2,6,6-tetramethylpiperidin-4-yl)pyrazin-2-amine], `CN(c1cnc(-c2cc(F)c(-c3cn[nH]c3)cc2F)cn1)C1CC(C)(C)NC(C)(C)C1` [Cpd 15, 5-[2,5-difluoro-4-(1H-pyrazol-4-yl)phenyl]-N-methyl-N-(2,2,6,6-tetramethylpiperidin-4-yl)pyrazin-2-amine] is lower in IC50: 100 to 500 nM for the first, less than 100 nM for the second.

First: Cc1cc(-c2cnc(N(C)C3CC(C)(C)NC(C)(C)C3)cn2)c(F)cc1-c1cn[nH]c1 [Cpd 11, 5-[2-fluoro-5-methyl-4-(1H-pyrazol-4-yl)phenyl]-N-methyl-N-(2,2,6,6-tetramethylpiperidin-4-yl)pyrazin-2-amine]
Second: CN(c1cnc(-c2cc(C#N)c(-c3cn[nH]c3)cc2F)cn1)C1CC(C)(C)NC(C)(C)C1 [Cpd 24, 4-fluoro-5-{5-[methyl(2,2,6,6-tetramethylpiperidin-4-yl)amino]pyrazin-2-yl}-2-(1H-pyrazol-4-yl)benzonitrile]
The IC50 of the first is higher: 100 to 500 nM for the first, less than 100 nM for the second. The second is the more potent here.

`Oc1cc(-c2cn[nH]c2)ccc1-c1cnc(N2CC3(CCNC3)C2)cn1` [Cpd 21, 2-[5-(2,6-diazaspiro[3.4]octan-2-yl)pyrazin-2-yl]-5-(1H-pyrazol-4-yl)phenol] and `Oc1cc(-c2cn[nH]c2)ccc1-c1cnc(NC2CCNCC2)cn1` [Cpd 8, 2-{5-[(piperidin-4-yl)amino]pyrazin-2-yl}-5-(1H-pyrazol-4-yl)phenol] fall in the same range of IC50: 1000 to 3000 nM for the first, 1000 to 3000 nM for the second.

Compared with `CC(C)(C)NC1CCN(c2cnc(-c3cc(F)c(-c4cn[nH]c4)cc3F)cn2)C1` (stereo not drawn) [Cpd 64, N-tert-butyl-1-{5-[2,5-difluoro-4-(1H-pyrazol-4-yl)phenyl]pyrazin-2-yl}pyrrolidin-3-amine], `CC(C)(C)NC1CCN(c2cnc(-c3ccc(-c4cn[nH]c4)c(F)c3F)cn2)C1` (stereo not drawn) [Cpd 63, N-tert-butyl-1-{5-[2,3-difluoro-4-(1H-pyrazol-4-yl)phenyl]pyrazin-2-yl}pyrrolidin-3-amine] is higher in IC50: less than 100 nM for the first, 100 to 500 nM for the second. The first is the more potent here.

First: CC1(C)CC(Oc2cnc(-c3ccc(-c4cn[nH]c4)c(F)c3F)cn2)CC(C)(C)N1 [Cpd 10, 2-[2,3-difluoro-4-(1H-pyrazol-4-yl)phenyl]-5-[(2,2,6,6-tetramethylpiperidin-4-yl)oxy]pyrazine]
Second: CN(c1cnc(-c2ccc(-c3cn[nH]c3)c(F)c2F)cn1)C1CC(C)(C)NC(C)(C)C1 [Cpd 13, 5-[2,3-difluoro-4-(1H-pyrazol-4-yl)phenyl]-N-methyl-N-(2,2,6,6-tetramethylpiperidin-4-yl)pyrazin-2-amine]
The IC50 of the first is higher: 1000 to 3000 nM for the first, less than 100 nM for the second.

Compared with `CC1(C)CC(Nc2cnc(-c3ccc(-c4cn[nH]c4)cc3O)cn2)CC(C)(C)N1` [Cpd 46, 5-(1H-pyrazol-4-yl)-2-{5-[(2,2,6,6-tetramethylpiperidin-4-yl)amino]pyrazin-2-yl}phenol], `CC1(C)CC(Nc2cnc(-c3ccc(-c4cc[nH]n4)cc3O)cn2)CC(C)(C)N1` [Cpd 58, 5-(1H-pyrazol-3-yl)-2-{5-[(2,2,6,6-tetramethylpiperidin-4-yl)amino]pyrazin-2-yl}phenol] is higher in IC50: less than 100 nM for the first, 100 to 500 nM for the second.

Compared with `Cc1cn(-c2ccc(-c3cnc(N(C)C4CC(C)(C)NC(C)(C)C4)cn3)c(F)c2F)cn1` [Cpd 41, 5-[2,3-difluoro-4-(4-methyl-1H-imidazol-1-yl)phenyl]-N-methyl-N-(2,2,6,6-tetramethylpiperidin-4-yl)pyrazin-2-amine], `CN(c1cnc(-c2ccc(-c3c[nH]nc3F)cc2O)cn1)C1CC(C)(C)NC(C)(C)C1` [Cpd 43, 5-(3-fluoro-1H-pyrazol-4-yl)-2-{5-[methyl(2,2,6,6-tetramethylpiperidin-4-yl)amino]pyrazin-2-yl}phenol] is lower in IC50: 500 to 1000 nM for the first, 100 to 500 nM for the second. The second is the more potent here.

Compared with `CC1(C)CC(Nc2cnc(-c3ccc(-c4cn[nH]c4F)cc3O)cn2)CC(C)(C)N1` [Cpd 57, 5-(5-fluoro-1H-pyrazol-4-yl)-2-{5-[(2,2,6,6-tetramethylpiperidin-4-yl)amino]pyrazin-2-yl}phenol], `CC1(C)CC(Nc2cnc(-c3ccc(-c4ncccn4)cc3O)cn2)CC(C)(C)N1` [Cpd 47, 5-(pyrimidin-2-yl)-2-{5-[(2,2,6,6-tetramethylpiperidin-4-yl)amino]pyrazin-2-yl} phenol] is higher in IC50: less than 100 nM for the first, 1000 to 3000 nM for the second. The first is the more potent here.

First: Oc1cc(-c2cn[nH]c2)ccc1-c1cnc(OC2CCNCC2)cn1 [Cpd 7, 2-{5-[(piperidin-4-yl)oxy]pyrazin-2-yl}-5-(1H-pyrazol-4-yl)phenol]
Second: Oc1cc(-c2cn[nH]c2)ccc1-c1cnc(OC2CC3CCC(C2)N3)cn1 (stereo not drawn) [Cpd 25, 2-[5-(8-azabicyclo[3.2.1]oct-3-yloxy)pyrazin-2-yl]-5-(1H-pyrazol-4-yl)phenol]
The IC50 of the first is lower: 1000 to 3000 nM for the first, 3000 to 9000 nM for the second. The first is the more potent here.

First: COc1cc(-c2ccc(-c3cnc(NC4CC(C)(C)NC(C)(C)C4)cn3)c(O)c2)ncn1 [Cpd 49, 5-(6-methoxypyrimidin-4-yl)-2-{5-[(2,2,6,6-tetramethylpiperidin-4-yl)amino]pyrazin-2-yl}phenol]
Second: CC1(C)CC(Nc2cnc(-c3ccc(-n4nccn4)cc3O)cn2)CC(C)(C)N1 [Cpd 51, 2-{5-[(2,2,6,6-tetramethylpiperidin-4-yl)amino]pyrazin-2-yl}-5-(2H-1,2,3-triazol-2-yl)phenol]
The IC50 of the first is lower: less than 100 nM for the first, 500 to 1000 nM for the second. The first is the more potent here.

Compared with `[2H]C([2H])([2H])n1cc(-c2ccc(-c3cnc(N(C)C4CC(C)(C)NC(C)(C)C4)cn3)c(O)c2)cn1` [Cpd 28, 5-[1-(^2H3)methyl-1H-pyrazo1-4-yl]-2-{5-[methyl(2,2,6,6-tetramethylpiperidin-4-yl)amino]pyrazin-2-yl}phenol], `CN(c1cnc(-c2ccc(-c3cn[nH]c3)cc2O)cn1)C1CC(C)(C)NC(C)(C)C1` [Cpd 26, 2-{5-[methyl(2,2,6,6-tetramethylpiperidin-4-yl)amino]pyrazin-2-yl}-5-(1H-pyrazol-4-yl)phenol] is lower in IC50: 500 to 1000 nM for the first, less than 100 nM for the second. The second is the more potent here.

First: CC1(C)CC(Oc2cnc(-c3ccc(-c4cn[nH]c4)cc3O)cn2)CC(C)(C)N1 [Cpd 2, 5-(1H-pyrazol-4-yl)-2-{5-[(2,2,6,6-tetramethylpiperidin-4-yl)oxy]pyrazin-2-yl}phenol]
Second: CN(c1cnc(-c2ccc(-n3cccn3)cc2O)cn1)C1CC(C)(C)NC(C)(C)C1 [Cpd 19, 2-{5-[methyl(2,2,6,6-tetramethylpiperidin-4-yl)amino]pyrazin-2-yl}-5-(1H-pyrazol-1-yl)phenol]
The IC50 of the first is lower: 500 to 1000 nM for the first, 1000 to 3000 nM for the second. The first is the more potent here.

With `CN(c1cnc(-c2ccc(-n3ccc(N)n3)cc2O)cn1)C1CC(C)(C)NC(C)(C)C1` [Cpd 14, 5-(3-amino-1H-pyrazol-1-yl)-2-{5-[methyl(2,2,6,6-tetramethylpiperidin-4-yl)amino]pyrazin-2-yl}phenol] the IC50 was 1000 to 3000 nM.
